Data on 4 molecules can be found in article PMC6467700 (Journal of medicinal chemistry, 2019).

The target in assay [1] is T1, MOR (Mus musculus, UniProt P42866). To be noted: cited from earlier work.
Assay [2] concerns MOR. The note with it: peripherally selective MOR antagonist; cited from earlier work.
Assay [3] deals with T1, MOR. The note with it: read-out: Ki (nM) MOR; ref 57a; cited from earlier work.
The target in assay [4] is DOR (Mus musculus, UniProt P32300). To be noted: ref 57a, cited from earlier work.
Sequence of DOR (P32300 whole entry): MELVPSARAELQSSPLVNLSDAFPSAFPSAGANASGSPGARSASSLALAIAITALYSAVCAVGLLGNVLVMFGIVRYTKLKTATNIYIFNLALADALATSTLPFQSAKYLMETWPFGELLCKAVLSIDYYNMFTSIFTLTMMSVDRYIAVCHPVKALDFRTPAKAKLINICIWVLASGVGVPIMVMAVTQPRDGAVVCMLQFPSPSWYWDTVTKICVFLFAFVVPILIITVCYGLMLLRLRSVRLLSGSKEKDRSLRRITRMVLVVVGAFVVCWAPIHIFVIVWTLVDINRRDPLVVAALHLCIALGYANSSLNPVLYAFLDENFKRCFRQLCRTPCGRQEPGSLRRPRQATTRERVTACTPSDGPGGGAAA
Assay [5] concerns the target T2, KOR (Mus musculus, UniProt P33534). The note with it: ref 57a, cited from earlier work.
In assay [6] the target is T1, MOR. The assay can be described thus: Competition radioligand binding at the MOR. To be noted: [3H]naloxone, CHO cells expressing mouse MOR.
Assay [7] addresses T2, KOR. To be noted: read-out: Ki,κ; 50a; cited from earlier work.

Each structure is given as a SMILES string. Read-outs that look alike come from different tables or passages of the source.

T2 sequence (P33534 whole entry): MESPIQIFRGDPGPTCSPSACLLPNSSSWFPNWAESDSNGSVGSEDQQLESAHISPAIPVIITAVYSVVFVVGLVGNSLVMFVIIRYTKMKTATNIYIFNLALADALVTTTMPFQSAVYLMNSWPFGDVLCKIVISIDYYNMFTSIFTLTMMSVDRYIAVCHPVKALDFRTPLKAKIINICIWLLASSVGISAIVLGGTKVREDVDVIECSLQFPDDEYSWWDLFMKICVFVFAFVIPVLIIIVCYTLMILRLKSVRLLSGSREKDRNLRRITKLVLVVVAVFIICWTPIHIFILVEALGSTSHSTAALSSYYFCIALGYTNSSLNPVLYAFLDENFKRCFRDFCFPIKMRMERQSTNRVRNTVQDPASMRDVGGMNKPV
T1 sequence (P42866 whole entry): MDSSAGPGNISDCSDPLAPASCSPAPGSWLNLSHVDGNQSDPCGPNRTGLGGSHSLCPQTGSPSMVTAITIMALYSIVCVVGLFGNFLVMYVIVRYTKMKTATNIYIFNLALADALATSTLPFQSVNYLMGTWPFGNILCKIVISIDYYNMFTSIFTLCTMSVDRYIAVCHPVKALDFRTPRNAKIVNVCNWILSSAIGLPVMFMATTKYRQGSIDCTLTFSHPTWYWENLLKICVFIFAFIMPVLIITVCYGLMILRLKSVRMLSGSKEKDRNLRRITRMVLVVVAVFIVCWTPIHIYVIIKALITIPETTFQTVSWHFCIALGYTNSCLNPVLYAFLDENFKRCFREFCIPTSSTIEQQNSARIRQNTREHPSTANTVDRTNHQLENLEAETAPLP

Consider `O=C(N[C@@H]1CC[C@@]2(O)[C@H]3Cc4ccc(O)c5c4[C@@]2(CCN3CC2CC2)[C@H]1O5)c1ccncc1` [NAP, 17-cyclopropylmethyl-3,14β-dihydroxy-4,5α-epoxy-6β-(4′-pyridylcarboxamido)-morphinan], for which, in assay [1] (ref 44a), the “MOR [35S]GTPγS Binding % Emax of DAMGO” value is reported as 22.72 ± 0.84%. Further, in assay [2], the ED50 – broadly, the dose at which the effect has come halfway, by size or by number of responders – is 8.8 µg/kg.
Consider `Cc1cnccc1C(=O)N[C@@H]1CC[C@@]2(O)[C@H]3Cc4ccc(O)c5c4[C@@]2(CCN3CC2CC2)[C@H]1O5` [NMP, 17-cyclopropylmethyl-3,14β-dihydroxy-4,5α-epoxy-6β-{[4′-(3′-methylpyridyl)]carboxamido}morphinan], for which the Ki (usually the equilibrium dissociation constant of an inhibitor or competing ligand from its target) was 0.58 ± 0.25 nM in assay [3], 273.6 ± 1.8 nM in assay [4] (read-out: Ki (nM) DOR) and 96.7 ± 12.2 nM in assay [5] (read-out: Ki (nM) KOR). In addition, the EC50 (commonly the concentration at which the effect is half-maximal) in assay [1] (read-out: MOR [35S]GTPγS Binding EC50, ref 57a) was 1.52 ± 0.26 nM. Moreover, the “MOR [35S]GTPγS Binding % Emax of DAMGO” value in assay [1] (ref 57a) was 30.63 ± 0.55%. Moreover, the “Selectivity δ/μ” value in assay [4] was 470. In addition, in assay [5], the “Selectivity κ/μ” value was 166.
For `COC(=O)c1cnccc1C(=O)N[C@@H]1CC[C@@]2(O)[C@H]3Cc4ccc(O)c5c4[C@@]2(CCN3CC2CC2)[C@H]1O5` [Compound 6, 17-Cyclopropylmethyl-3,14β-dihydroxy-4,5α-epoxy-6β-[(3′-methylformate-4′-pyridyl)acetamido]morphinan], the “Ki (nM) MOR” value in assay [6] is “nanomolar binding affinity”.
Take `Oc1ccc2c3c1O[C@H]1c4[nH]c5c(c4C[C@@]4(O)[C@@H](C2)N(CC2CC2)CC[C@]314)C[C@@]1(O)[C@H]2Cc3ccc(O)c4c3[C@@]1(CCN2CC1CC1)[C@H]5O4` [norBNI]: the Ki in assay [7] is 1.8 nM.
